Measurements reported in the supplement of paper PMC10307832.

Columns and labels:
Assay in all cases: relative viability (nuclei count vs DMSO), 5 days (fraction); higher = more cells survive
Ibrutinib + Trametinib = compound: C=CC(=O)N1CCC[C@@H](n2nc(-c3ccc(Oc4ccccc4)cc3)c3c(N)ncnc32)C1 [Ibrutinib] + CC(=O)Nc1cccc(-n2c(=O)n(C3CC3)c(=O)c3c(Nc4ccc(I)cc4F)n(C)c(=O)c(C)c32)c1 [Trametinib] (partner 0.02 µM)
How it was run: (§1)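 Lung cancer cell lines, seeded in 1536-well plates, were treated the following day by pin tool with a single drug or with five library-drug doses (not always all listed) in √10 steps on top of a fixed anchor-drug dose. Cells were fixed and nuclei stained in one step after 5 days, and nuclei were counted. Relative viability is the nuclei count for treated wells divided by that for vehicle wells, reported as medians of duplicate plates.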

Ibrutinib + Navitoclax = compound: C=CC(=O)N1CCC[C@@H](n2nc(-c3ccc(Oc4ccccc4)cc3)c3c(N)ncnc32)C1 [Ibrutinib] + CC1(C)CCC(c2ccc(Cl)cc2)=C(CN2CCN(c3ccc(C(=O)NS(=O)(=O)c4ccc(N[C@H](CCN5CCOCC5)CSc5ccccc5)c(S(=O)(=O)C(F)(F)F)c4)cc3)CC2)C1 [Navitoclax] (partner 0.5 µM)
How it was run: as §1

PAC-1 + Alpelisib = compound: C=CCc1cccc(/C=N/NC(=O)CN2CCN(Cc3ccccc3)CC2)c1O [PAC-1] + Cc1nc(NC(=O)N2CCC[C@H]2C(N)=O)sc1-c1ccnc(C(C)(C)C(F)(F)F)c1 [Alpelisib] (partner 2 µM)
How it was run: as §1

PAC-1 + Phenformin = compound: C=CCc1cccc(/C=N/NC(=O)CN2CCN(Cc3ccccc3)CC2)c1O [PAC-1] + N=C(N)NC(=N)NCCc1ccccc1 [Phenformin] (partner 250 µM)
How it was run: as §1

Cell Line	relative viability (Ibrutinib + Trametinib; first compound 0.005 µM)	relative viability (Ibrutinib + Trametinib; first compound 0.01581 µM)	relative viability (Ibrutinib + Trametinib; first compound 0.05 µM)	relative viability (Ibrutinib + Trametinib; first compound 0.1581 µM)	relative viability (Ibrutinib + Trametinib; first compound 0.5 µM)	relative viability (Ibrutinib + Navitoclax; first compound 0.005 µM)	relative viability (Ibrutinib + Navitoclax; first compound 0.01581 µM)	relative viability (Ibrutinib + Navitoclax; first compound 0.05 µM)	relative viability (Ibrutinib + Navitoclax; first compound 0.1581 µM)	relative viability (Ibrutinib + Navitoclax; first compound 0.5 µM)	relative viability (PAC-1 + Alpelisib; first compound 0.02 µM)	relative viability (PAC-1 + Alpelisib; first compound 0.06325 µM)	relative viability (PAC-1 + Alpelisib; first compound 0.2 µM)	relative viability (PAC-1 + Alpelisib; first compound 2 µM)	relative viability (PAC-1 + Phenformin; first compound 0.02 µM)	relative viability (PAC-1 + Phenformin; first compound 0.06325 µM)	relative viability (PAC-1 + Phenformin; first compound 0.2 µM)	relative viability (PAC-1 + Phenformin; first compound 2 µM)
NCI-H441	0.423	0.441	0.524	0.344	0.342	0.561	0.556	0.601	0.731	0.733	0.629	0.671	0.679	0.57	0.881	0.993	0.705	0.752
NCI-H460	0.133	0.0919	0.195	0.13	0.152	1.27	1.01	1.09	1.2	1.13	0.354	0.534	0.433	0.327	0.503	0.528	0.483	0.575
NCI-H520	0.486	0.651	0.653	0.794	0.621	1.02	1.08	1.21	1.13	0.959	0.704	0.979	0.927	0.925	0.418	0.685	0.462	0.6
NCI-H596	0.821	0.688	0.808	0.826	0.874	0.924	0.867	0.852	0.962	0.681	0.428	0.561	0.472	0.446	0.739	1.03	0.783	0.785
NCI-H647	0.415	0.445	0.478	0.443	0.529	1.09	1.13	1.22	1.05	1.1	0.995	1.08	1.14	0.709	0.609	0.504	0.431	0.571
NCI-H727	0.463	0.4	0.398	0.37	0.388	0.475	0.405	0.374	0.449	0.42	0.646	0.648	0.527	0.561	0.463	0.682	0.565	0.52
NCI-H838	0.342	0.484	0.528	0.523	0.499	1.18	1.12	1.23	1.17	1.21	1.07	1.01	0.962	1.04	0.509	0.585	0.46	0.572
NCI-H1355	–	0.395	0.363	0.433	0.368	–	0.904	0.918	0.96	0.801	0.861	0.809	0.753	0.822	0.461	0.517	0.431	0.438
NCI-H1395	0.912	1.13	1.16	1.04	1.01	1.07	–	1.15	1.54	1.17	1.19	1.02	1.02	1.02	0.45	0.429	0.421	0.426
NCI-H1437	0.53	0.51	0.555	0.491	0.624	1.14	–	1.11	1.13	1.14	0.953	0.932	0.906	0.716	0.302	0.275	0.264	0.339
NCI-H1651	0.858	0.807	0.765	0.776	0.773	0.853	1.03	1.12	1	0.837	0.917	1.12	0.848	0.867	0.364	0.341	0.29	0.333
NCI-H1666	0.809	0.849	0.832	0.938	0.744	0.762	0.806	0.521	1.06	0.451	0.917	0.971	1.06	0.993	0.589	0.559	0.695	0.549
NCI-H1734	0.636	0.67	0.677	0.596	0.618	0.839	0.821	0.794	0.869	0.726	0.662	0.664	0.748	0.642	0.366	0.36	0.373	0.388
NCI-H1755	0.761	0.796	0.796	0.793	0.746	0.988	1.02	–	1.09	0.952	0.925	0.918	0.865	0.826	0.615	0.614	0.595	0.606
NCI-H1792	–	0.404	0.48	0.44	0.36	0.669	0.694	0.69	0.474	0.599	0.717	0.77	0.722	0.677	0.298	0.257	0.293	0.24
NCI-H1793	0.485	0.423	0.436	0.419	0.401	–	0.282	0.603	0.498	0.343	0.681	0.615	0.894	0.621	0.327	0.376	0.355	0.353
NCI-H1915	0.324	0.295	0.28	0.292	0.283	–	0.767	0.799	0.793	0.795	1.04	1.08	0.991	1.02	0.364	0.358	0.345	0.365
NCI-H1944	0.423	0.369	0.395	0.363	0.374	0.902	0.985	0.811	0.969	0.689	0.78	0.849	0.813	0.752	0.198	0.198	0.19	0.189
